Data on 14 compounds can be found in patent US20230167073A1 (Teijin Pharma Limited, priority 2020, published 2023).

Where only a bound is given, the exact number is not on record here.

One experiment concerns the target T1, Human TRPC6 (Homo sapiens, UniProt Q9Y210).
T1 construct: expressed in transfected cells
T1 sequence (Q9Y210 1-931): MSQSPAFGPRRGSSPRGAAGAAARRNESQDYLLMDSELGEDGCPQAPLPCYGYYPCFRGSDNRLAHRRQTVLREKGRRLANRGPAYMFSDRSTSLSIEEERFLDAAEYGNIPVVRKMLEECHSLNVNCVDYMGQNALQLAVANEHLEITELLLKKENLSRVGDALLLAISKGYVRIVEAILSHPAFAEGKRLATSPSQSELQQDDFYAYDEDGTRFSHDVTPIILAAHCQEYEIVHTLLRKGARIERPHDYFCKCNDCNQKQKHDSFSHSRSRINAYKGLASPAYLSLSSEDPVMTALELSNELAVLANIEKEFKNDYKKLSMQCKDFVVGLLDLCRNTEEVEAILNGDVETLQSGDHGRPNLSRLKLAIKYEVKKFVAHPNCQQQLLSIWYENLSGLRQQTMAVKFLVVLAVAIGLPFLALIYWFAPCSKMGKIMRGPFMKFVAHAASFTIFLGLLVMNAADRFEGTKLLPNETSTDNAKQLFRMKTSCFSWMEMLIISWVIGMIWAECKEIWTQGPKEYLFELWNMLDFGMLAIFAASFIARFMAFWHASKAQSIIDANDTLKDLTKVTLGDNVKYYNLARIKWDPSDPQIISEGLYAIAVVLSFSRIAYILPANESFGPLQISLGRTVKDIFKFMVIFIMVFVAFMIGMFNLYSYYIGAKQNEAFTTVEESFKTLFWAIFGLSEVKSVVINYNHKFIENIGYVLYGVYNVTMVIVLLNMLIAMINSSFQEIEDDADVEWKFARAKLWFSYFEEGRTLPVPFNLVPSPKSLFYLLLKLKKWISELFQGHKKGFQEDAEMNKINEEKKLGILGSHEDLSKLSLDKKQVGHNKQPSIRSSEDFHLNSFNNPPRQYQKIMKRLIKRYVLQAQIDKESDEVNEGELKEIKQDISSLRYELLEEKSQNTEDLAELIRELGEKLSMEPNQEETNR
Description: Evaluation of TRPC6 channel inhibitory activity (1), FLIPR Calcium 5 Assay Kit, OAG stimulation (Compound Nos. 1-1293). Format: cell-based.
Details: not given
The procedure, abridged:
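TRPC6 (human) stable cells, 24 h culture; Ca5 no-wash dye + probenecid 30 min; cpd 20 min; OAG 30 μM final; ΔF (pre-cpd min to post-OAG max); 0%/100% = no cpd / no cpd + no OAG; 4PL → pIC50, binned +/++/+++.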
With `Cc1cc(Oc2cc(C#N)ccc2-c2ncc(CCN)cn2)cc(N2C3CCC2CC3)n1` [compound 827, 4-[5-(2-aminoethyl)pyrimidin-2-yl]-3-[2-(7-azabicyclo[2.2.1]heptan-7-yl)-6-methylpyridin-4-yl]oxybenzonitrile], the IC50 is less than 0.01 µM.

Staying with this experiment, now noted: Human TRPC6 stably-expressing cells, OAG 30 μM, FLIPR Calcium 5 Assay Kit; read-out: Inhibitory activity (pIC50 class) (converted).
Take `Cc1cc(Oc2cc(C#N)ccc2-c2ccc(C[C@@H](N)C(=O)O)cn2)cc(N2CCOCC2)n1` [compound 614, (2R)-2-amino-3-[6-[4-cyano-2-(2-methyl-6-morpholin-4-ylpyridin-4-yl)oxyphenyl]pyridin-3-yl]propanoic acid]: the IC50 was greater than 1 µM.

Consider `N#Cc1ccc(-c2ncc(CCN)cn2)c(C(=O)c2nnc(N3CCOCC3)o2)c1` [compound 1092, 4-[5-(2-aminoethyl)pyrimidin-2-yl]-3-(5-morpholin-4-yl-1,3,4-oxadiazole-2-carbonyl)benzonitrile], for which the IC50 was 0.01 to 1 µM.

With `N#Cc1ccc(-c2ncc(CCN)cn2)c(Cc2cnn(-c3ccccn3)c2)c1` [compound 1197, 4-[5-(2-aminoethyl)pyrimidin-2-yl]-3-[(1-pyridin-2-ylpyrazol-4-yl)methyl]benzonitrile], the IC50 was 0.01 to 1 µM.

Take `CCC(N)c1cnc(-c2ccc(C#N)cc2Oc2cc(C)nc(N3CCOCC3)c2)nc1` (centres unmarked) [compound 735, 4-[5-(1-aminopropyl)pyrimidin-2-yl]-3-(2-methyl-6-morpholin-4-ylpyridin-4-yl)oxybenzonitrile]: the IC50 was less than 0.01 µM.

`Cc1cc(Oc2cc(C#N)ccc2-c2ncc(CCN)cn2)n(C)n1` [compound 305, 4-[5-(2-aminoethyl)pyrimidin-2-yl]-3-(2,5-dimethylpyrazol-3-yl)oxybenzonitrile]: the IC50 is 0.01 to 1 µM.

Consider `Cn1nc(C2CC2)cc1Oc1cc(C#N)ccc1-c1ccc(CN2CCNCC2=O)cn1` [compound 778, 3-(5-cyclopropyl-2-methylpyrazol-3-yl)oxy-4-[5-[(2-oxopiperazin-1-yl)methyl]pyridin-2-yl]benzonitrile], for which the IC50 was greater than 1 µM.

Regarding `Cc1nc(-c2ccc(C(F)(F)F)cc2)cn1Cc1cc(C#N)ccc1-c1ccc(CCN)cc1` [compound 1125, 4-[4-(2-aminoethyl)phenyl]-3-[[2-methyl-4-[4-(trifluoromethyl)phenyl]imidazol-1-yl]methyl]benzonitrile], the IC50 was greater than 1 µM.

For `Cn1nc(-c2ccccc2)cc1Oc1nc(C#N)ccc1-c1ccc(CCN)cn1` [Compound No. 1279, 5-[5-(2-Aminoethyl)pyridin-2-yl]-6-(2-methyl-5-phenylpyrazol-3-yl)oxypyridine-2-carbonitrile], the IC50 is less than 0.01 µM.

With `Cc1nc(C(C)C)cn1Cc1cc(C#N)ccc1-c1ncc(CCN)cn1` [compound 1171, 4-[5-(2-aminoethyl)pyrimidin-2-yl]-3-[(2-methyl-4-propan-2-ylimidazol-1-yl)methyl]benzonitrile], the IC50 is 0.01 to 1 µM.

As for `Cc1nc(-c2cccc(F)c2)cn1Cc1cc(C#N)ccc1-c1ccc([C@H](O)CN)cn1` [compound 1161, 4-[5-[(1S)-2-amino-1-hydroxyethyl]pyridin-2-yl]-3-[[4-(3-fluorophenyl)-2-methylimidazol-1-yl]methyl]benzonitrile], the IC50 is 0.01 to 1 µM.

On to `Cn1nc(Br)cc1Oc1cc(C#N)ccc1-c1ncc(CN)cn1` [compound 929, 4-[5-(aminomethyl)pyrimidin-2-yl]-3-(5-bromo-2-methylpyrazol-3-yl)oxybenzonitrile], for which the IC50 is greater than 1 µM.

As to `Cc1nc(OCCC(C)C)cc(Oc2cc(C#N)ccc2-c2ccc(CCN)cc2)n1` [Compound 41, 4-[4-(2-aminoethyl)phenyl]-3-[2-methyl-6-(3-methylbutoxy)pyrimidin-4-yl]oxybenzonitrile], the IC50 is greater than 1 µM.

Take `Cn1nc(C2CCC2)cc1Oc1cc(C#N)ccc1-c1ccc(C(F)(F)CN)cn1` [Compound 294, 4-[5-(2-amino-1,1-difluoroethyl)pyridin-2-yl]-3-(5-cyclobutyl-2-methylpyrazol-3-yl)oxybenzonitrile]: the IC50 is less than 0.01 µM.
